Laboratory results reported in PubChem BioAssay (NCI).
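Briefly, cells in 96-well plates were exposed to five compound concentrations for 48 h, and endpoints were estimated by linear interpolation. GI50: concentration for 50% inhibition of growth. TGI: concentration producing complete growth inhibition.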

Legend:
Test in all cases: inhibition of tumour cell growth, NCI panel, 48 h
SN12C renal = system: SN12C renal
MDA-MB-231 breast = system: MDA-MB-231 breast
SF-295 CNS = system: SF-295 CNS
NCI-H226 lung = system: NCI-H226 lung
IGROV1 ovarian = system: IGROV1 ovarian
MDA-MB-435 = system: MDA-MB-435
PC-3 prostate = system: PC-3 prostate
UACC-257 melanoma = system: UACC-257 melanoma
DU-145 prostate = system: DU-145 prostate
SNB-75 CNS = system: SNB-75 CNS
CCRF-CEM leukemia = system: CCRF-CEM leukemia
OVCAR-3 ovarian = system: OVCAR-3 ovarian
RXF 393 renal = system: RXF 393 renal
SK-OV-3 ovarian = system: SK-OV-3 ovarian
EKVX NSCLC = system: EKVX NSCLC
KM12 colon = system: KM12 colon
NCI-H460 lung = system: NCI-H460 lung
SK-MEL-28 melanoma = system: SK-MEL-28 melanoma
COLO 205 colon = system: COLO 205 colon
SW-620 colon = system: SW-620 colon
HOP-62 NSCLC = system: HOP-62 NSCLC
M14 melanoma = system: M14 melanoma
NCI/ADR-RES ovarian = system: NCI/ADR-RES ovarian
SK-MEL-5 melanoma = system: SK-MEL-5 melanoma
ACHN renal = system: ACHN renal
TK-10 renal = system: TK-10 renal
U251 CNS = system: U251 CNS
SNB-19 CNS = system: SNB-19 CNS
HCC-2998 colon = system: HCC-2998 colon
OVCAR-8 ovarian = system: OVCAR-8 ovarian
MALME-3M melanoma = system: MALME-3M melanoma
CAKI-1 renal = system: CAKI-1 renal
MOLT-4 leukemia = system: MOLT-4 leukemia
OVCAR-5 ovarian = system: OVCAR-5 ovarian
NCI-H23 lung = system: NCI-H23 lung
MCF7 breast = system: MCF7 breast
786-0 renal = system: 786-0 renal
OVCAR-4 ovarian = system: OVCAR-4 ovarian
T-47D breast = system: T-47D breast
HL-60(TB) leukemia = system: HL-60(TB) leukemia
UACC-62 melanoma = system: UACC-62 melanoma
HCT-116 colon = system: HCT-116 colon
UO-31 renal = system: UO-31 renal
SF-539 CNS = system: SF-539 CNS
K-562 leukemia = system: K-562 leukemia
HCT-15 colon = system: HCT-15 colon
HT29 colon = system: HT29 colon
RPMI-8226 leukemia = system: RPMI-8226 leukemia
MDA-N = system: MDA-N
HOP-92 NSCLC = system: HOP-92 NSCLC
A549 NSCLC = system: A549 NSCLC
HS 578T breast = system: HS 578T breast
A498 renal = system: A498 renal
LOX IMVI melanoma = system: LOX IMVI melanoma
SF-268 CNS = system: SF-268 CNS
SK-MEL-2 melanoma = system: SK-MEL-2 melanoma
BT-549 breast = system: BT-549 breast

S=C(S)NCCNC(=S)S.[Cu+2] gave a GI50 (SN12C renal) greater than 100 µM, a TGI (SN12C renal) greater than 100 µM and a GI50 (MDA-MB-231 breast) greater than 100 µM. The TGI (MDA-MB-231 breast) was greater than 100 µM, the GI50 (SF-295 CNS) was greater than 100 µM and the TGI (SF-295 CNS) was greater than 100 µM. It also gave a GI50 (NCI-H226 lung) greater than 100 µM, a TGI (NCI-H226 lung) greater than 100 µM and a GI50 (IGROV1 ovarian) of 93.2 µM. It also gave a TGI (IGROV1 ovarian) greater than 100 µM, a GI50 (MDA-MB-435) of 29.7 µM and a TGI (MDA-MB-435) of 79.2 µM. For the same compound, the GI50 (PC-3 prostate) was greater than 100 µM, the TGI (PC-3 prostate) was greater than 100 µM and the GI50 (UACC-257 melanoma) was greater than 100 µM. For the same compound, the TGI (UACC-257 melanoma) was greater than 100 µM, the GI50 (DU-145 prostate) was greater than 100 µM and the TGI (DU-145 prostate) was greater than 100 µM. The GI50 (SNB-75 CNS) was greater than 100 µM, the TGI (SNB-75 CNS) was greater than 100 µM and the GI50 (CCRF-CEM leukemia) was greater than 100 µM. It also gave a TGI (CCRF-CEM leukemia) greater than 100 µM, a GI50 (OVCAR-3 ovarian) greater than 100 µM and a TGI (OVCAR-3 ovarian) greater than 100 µM. It also gave a GI50 (RXF 393 renal) of 36.1 µM, a TGI (RXF 393 renal) greater than 100 µM and a GI50 (SK-OV-3 ovarian) of 8.24 µM. For the same compound, the TGI (SK-OV-3 ovarian) was 23.1 µM, the GI50 (EKVX NSCLC) was 70.1 µM and the TGI (EKVX NSCLC) was greater than 100 µM. For the same compound, the GI50 (KM12 colon) was greater than 100 µM, the TGI (KM12 colon) was greater than 100 µM and the GI50 (NCI-H460 lung) was 29.7 µM. The TGI (NCI-H460 lung) was 89.3 µM, the GI50 (SK-MEL-28 melanoma) was greater than 100 µM and the TGI (SK-MEL-28 melanoma) was greater than 100 µM. For the same compound, the GI50 (COLO 205 colon) was greater than 100 µM, the TGI (COLO 205 colon) was greater than 100 µM and the GI50 (SW-620 colon) was 88.6 µM. For the same compound, the TGI (SW-620 colon) was greater than 100 µM, the GI50 (HOP-62 NSCLC) was 68.6 µM and the TGI (HOP-62 NSCLC) was greater than 100 µM. For the same compound, the GI50 (M14 melanoma) was greater than 100 µM, the TGI (M14 melanoma) was greater than 100 µM and the GI50 (NCI/ADR-RES ovarian) was greater than 100 µM. For the same compound, the TGI (NCI/ADR-RES ovarian) was greater than 100 µM, the GI50 (SK-MEL-5 melanoma) was 25.8 µM and the TGI (SK-MEL-5 melanoma) was 58.5 µM. The GI50 (ACHN renal) was greater than 100 µM, the TGI (ACHN renal) was greater than 100 µM and the GI50 (TK-10 renal) was greater than 100 µM. The TGI (TK-10 renal) was greater than 100 µM, the GI50 (U251 CNS) was greater than 100 µM and the TGI (U251 CNS) was greater than 100 µM. For the same compound, the GI50 (SNB-19 CNS) was greater than 100 µM, the TGI (SNB-19 CNS) was greater than 100 µM and the GI50 (HCC-2998 colon) was 59.3 µM. For the same compound, the TGI (HCC-2998 colon) was greater than 100 µM, the GI50 (OVCAR-8 ovarian) was greater than 100 µM and the TGI (OVCAR-8 ovarian) was greater than 100 µM. It also gave a GI50 (MALME-3M melanoma) greater than 100 µM, a TGI (MALME-3M melanoma) greater than 100 µM and a GI50 (CAKI-1 renal) greater than 100 µM. For the same compound, the TGI (CAKI-1 renal) was greater than 100 µM, the GI50 (MOLT-4 leukemia) was greater than 100 µM and the TGI (MOLT-4 leukemia) was greater than 100 µM. It also gave a GI50 (OVCAR-5 ovarian) of 52.4 µM, a TGI (OVCAR-5 ovarian) greater than 100 µM and a GI50 (NCI-H23 lung) greater than 100 µM. For the same compound, the TGI (NCI-H23 lung) was greater than 100 µM, the GI50 (MCF7 breast) was 27.4 µM and the TGI (MCF7 breast) was 78.2 µM. It also gave a GI50 (786-0 renal) of 63.2 µM, a TGI (786-0 renal) greater than 100 µM and a GI50 (OVCAR-4 ovarian) of 36.1 µM. For the same compound, the TGI (OVCAR-4 ovarian) was greater than 100 µM, the GI50 (T-47D breast) was greater than 100 µM and the TGI (T-47D breast) was greater than 100 µM. The GI50 (HL-60(TB) leukemia) was greater than 100 µM, the TGI (HL-60(TB) leukemia) was greater than 100 µM and the GI50 (UACC-62 melanoma) was 33.9 µM. The TGI (UACC-62 melanoma) was greater than 100 µM, the GI50 (HCT-116 colon) was greater than 100 µM and the TGI (HCT-116 colon) was greater than 100 µM. It also gave a GI50 (UO-31 renal) greater than 100 µM, a TGI (UO-31 renal) greater than 100 µM and a GI50 (SF-539 CNS) greater than 100 µM. For the same compound, the TGI (SF-539 CNS) was greater than 100 µM, the GI50 (K-562 leukemia) was greater than 100 µM and the TGI (K-562 leukemia) was greater than 100 µM. For the same compound, the GI50 (HCT-15 colon) was 51.6 µM, the TGI (HCT-15 colon) was greater than 100 µM and the GI50 (HT29 colon) was greater than 100 µM. It also gave a TGI (HT29 colon) greater than 100 µM, a GI50 (RPMI-8226 leukemia) greater than 100 µM and a TGI (RPMI-8226 leukemia) greater than 100 µM. The GI50 (MDA-N) was 25.7 µM, the TGI (MDA-N) was 69.5 µM and the GI50 (HOP-92 NSCLC) was greater than 100 µM. The TGI (HOP-92 NSCLC) was greater than 100 µM, the GI50 (A549 NSCLC) was 56.6 µM and the TGI (A549 NSCLC) was greater than 100 µM. For the same compound, the GI50 (HS 578T breast) was greater than 100 µM, the TGI (HS 578T breast) was greater than 100 µM and the GI50 (A498 renal) was 57.6 µM. The TGI (A498 renal) was greater than 100 µM, the GI50 (LOX IMVI melanoma) was 31.8 µM and the TGI (LOX IMVI melanoma) was greater than 100 µM. It also gave a GI50 (SF-268 CNS) greater than 100 µM and a TGI (SF-268 CNS) greater than 100 µM.
COc1ccccc1N1C(=O)CSC1c1c[nH]c2ccccc12 (configuration not stated) was tested, and the TGI (SN12C renal) was greater than 100 µM, the TGI (MDA-MB-231 breast) was greater than 100 µM and the TGI (SF-295 CNS) was greater than 100 µM. It also gave a TGI (NCI-H226 lung) greater than 100 µM, a TGI (IGROV1 ovarian) greater than 100 µM and a TGI (MDA-MB-435) greater than 100 µM. The TGI (UACC-257 melanoma) was greater than 100 µM, the TGI (SK-MEL-2 melanoma) was greater than 100 µM and the TGI (DU-145 prostate) was greater than 100 µM. For the same compound, the TGI (SNB-75 CNS) was greater than 100 µM, the TGI (OVCAR-3 ovarian) was greater than 100 µM and the TGI (RXF 393 renal) was greater than 100 µM. The TGI (SK-OV-3 ovarian) was greater than 100 µM, the TGI (EKVX NSCLC) was greater than 100 µM and the TGI (KM12 colon) was greater than 100 µM. The TGI (NCI-H460 lung) was greater than 100 µM, the TGI (SK-MEL-28 melanoma) was greater than 100 µM and the TGI (COLO 205 colon) was greater than 100 µM. For the same compound, the TGI (SW-620 colon) was greater than 100 µM, the TGI (HOP-62 NSCLC) was greater than 100 µM and the TGI (M14 melanoma) was greater than 100 µM. The TGI (NCI/ADR-RES ovarian) was greater than 100 µM, the TGI (SK-MEL-5 melanoma) was greater than 100 µM and the TGI (ACHN renal) was greater than 100 µM. It also gave a TGI (TK-10 renal) greater than 100 µM, a TGI (U251 CNS) greater than 100 µM and a TGI (SNB-19 CNS) greater than 100 µM. It also gave a TGI (HCC-2998 colon) greater than 100 µM, a TGI (OVCAR-8 ovarian) greater than 100 µM and a TGI (MOLT-4 leukemia) greater than 100 µM. For the same compound, the TGI (OVCAR-5 ovarian) was greater than 100 µM, the TGI (NCI-H23 lung) was greater than 100 µM and the TGI (MCF7 breast) was greater than 100 µM. It also gave a TGI (786-0 renal) greater than 100 µM, a TGI (OVCAR-4 ovarian) greater than 100 µM and a TGI (T-47D breast) greater than 100 µM. It also gave a TGI (HL-60(TB) leukemia) greater than 100 µM, a TGI (UACC-62 melanoma) greater than 100 µM and a TGI (HCT-116 colon) greater than 100 µM. For the same compound, the TGI (BT-549 breast) was greater than 100 µM, the TGI (UO-31 renal) was greater than 100 µM and the TGI (SF-539 CNS) was greater than 100 µM. It also gave a TGI (K-562 leukemia) greater than 100 µM, a TGI (HCT-15 colon) greater than 100 µM and a TGI (HT29 colon) greater than 100 µM. For the same compound, the TGI (RPMI-8226 leukemia) was greater than 100 µM, the TGI (MDA-N) was greater than 100 µM and the TGI (HOP-92 NSCLC) was greater than 100 µM. It also gave a TGI (A549 NSCLC) greater than 100 µM, a TGI (HS 578T breast) greater than 100 µM and a TGI (A498 renal) greater than 100 µM. The TGI (SF-268 CNS) was greater than 100 µM.
